Measurements from PMC4273984 (ACS Chemical Biology, 2014).
Values belong to the compound of their own block, whether it stands above or below them.

Experiments:
BrdT = BrdT (Homo sapiens, UniProt Q58F21); assay: Protein-observed 19F NMR, 5FW-BrdT; assay type: binding; settings: resonance perturbation in slow exchange
Brd4(1) = Brd4(1) (Homo sapiens, UniProt O60885); settings: fluorescence anisotropy or TR-FRET; cited from earlier work
5FW-Brd4(1) = 5FW-Brd4(1) (Homo sapiens, UniProt O60885); assay: Protein-observed 19F NMR; assay type: binding; settings: W81 resonance perturbation
3FY-Brd4(1) = 3FY-Brd4(1) (Homo sapiens, UniProt O60885); assay: Protein-observed 19F NMR; assay type: binding
Brd4 = settings: BET bromodomain inhibition; cited from earlier work

binding to BrdT by PrOF NMR (BrdT): bind to BrdT
Compound: CC[C@@H]1C(=O)N(C)c2cnc(Nc3ccc(C(=O)NC4CCN(C)CC4)cc3OC)nc2N1C1CCCC1 [BI2536]

Compound: CC(=O)Nc1ccc(O)cc1 [acetaminophen]
affinity for Brd4(1) (Brd4(1)): too weak | Kd (5FW-Brd4(1)): 230 ± 30 µM | Kd (3FY-Brd4(1)): 290 ± 40 µM
